ChEMBL document CHEMBL4706577, “Design, synthesis, antitrypanosomal activity, DNA/RNA binding and in vitro ADME profiling of novel imidazoline-substituted 2-arylbenzimidazoles” (Eur J Med Chem, 2020)
Activity calls are given as the source filed them. The calls are words filed in the database; no cut-off is given here.

Tests used:
[1] = Apparent permeability across apical to basolateral side in dog MDCK-MDR1 cells incubated for 60 mins by LC-MS/MS analysis; assay type: ADME, cell-based, Canis lupus familiaris
[2] = Apparent permeability across basolateral to apical side in dog MDCK-MDR1 cells incubated for 60 mins by LC-MS/MS analysis; assay type: ADME, cell-based, Canis lupus familiaris
[3] = test system: Trypanosoma brucei brucei; experiment: Antitrypanosomal activity against bloodstream form of Trypanosoma brucei brucei 221 assessed as parasite growth inhibition at 100 ug/ml incubated for 48 hrs by resazurin staining based assay relative to control; assay type: functional
[4] = Efflux ratio of apparent permeability from basolateral to apical side over apical to basolateral side in MDCK-MDR1 cells; assay type: ADME, cell-based, Canis lupus familiaris; conditions: dog
[5] = test system: Trypanosoma brucei brucei; experiment: Antitrypanosomal activity against bloodstream form of Trypanosoma brucei brucei 221 assessed as parasite growth inhibition incubated for 48 hrs by resazurin staining based assay; assay type: functional, organism-based; conditions: for IC50: Trypanosoma brucei, 221, 48 h
[6] = test system: Trypanosoma brucei brucei; experiment: Antitrypanosomal activity against bloodstream form of Trypanosoma brucei brucei 221 assessed as parasite growth inhibition at 1 ug/ml incubated for 48 hrs by resazurin staining based assay relative to control; assay type: functional
[7] = Selectivity index, ratio of IC50 for rat L6 cells to IC50 for Trypanosoma brucei brucei 221; assay type: toxicity; conditions: read-out: Ratio IC50
Calf thymus DNA [8] = experiment: Binding affinity to calf thymus DNA assessed as thermal stability by measuring melting temperature by spectrophotometric method; assay type: nucleic-acid assay; conditions: Bos taurus
RNA = experiment: Binding affinity to major groove of ds-RNA (unknown origin) assessed as positive ICD band by CD spectroscopy; assay type: nucleic-acid assay
[9] = test system: Poly(dA-dU)oligonucleotide; experiment: Binding affinity to poly A-poly U (unknown origin) assessed as binding constant by fluorescence spectra analysis; assay type: nucleic-acid assay
L6 = experiment: Cytotoxicity against rat L6 cells incubated for 6 days by resazurin dye based assay; assay type: cell-based; conditions: L6, 144 h
Calf thymus DNA [10] = experiment: Binding affinity to calf thymus DNA assessed as binding constant by fluorescence spectra analysis; assay type: nucleic-acid assay; conditions: Bos taurus
[11] = test system: Trypanosoma brucei brucei; experiment: Potency index, ratio of nifurtimox IC50 to compound IC50 for antitrypanosomal activity against blood stream form of Trypanosoma brucei brucei 221; assay type: functional
[12] = test system: Poly(dA-dU)oligonucleotide; experiment: Binding affinity to poly A-poly U (unknown origin) assessed as thermal stability by measuring melting temperature by spectrophotometric method; assay type: nucleic-acid assay
[13] = test system: Poly(dA-dT)oligonucleotide; experiment: Binding affinity to poly (dA-dT)2 (unknown origin) assessed as thermal stability by measuring melting temperature by spectrophotometric method; assay type: nucleic-acid assay
[14] = test system: Poly(dG-dC)oligonucleotide; experiment: Binding affinity to p(dGdC)2 (unknown origin) assessed as binding constant by fluorescence spectra analysis; assay type: nucleic-acid assay
dsDNA = experiment: Binding affinity to minor groove of ds-DNA (unknown origin) assessed as positive ICD band by CD spectroscopy; assay type: nucleic-acid assay
[15] = test system: Poly(dA-dT)oligonucleotide; experiment: Binding affinity to p(dAdT)2 (unknown origin) assessed as binding constant by fluorescence spectra analysis; assay type: nucleic-acid assay

SMILES: Cl.c1cc(-c2nc3cc(C4=NCCN4)ccc3[nH]2)ccc1OCCN1CCOCC1
- Papp A→B at 1 h [1]: 0.49 ×10⁻⁶ cm/s
- Papp B→A at 1 h [2]: 0.69 ×10⁻⁶ cm/s
- inhibition at 100 µg/mL [3]: 100%
- efflux ratio [4]: 1.4

SMILES: COc1cc(-c2nc3cc(C4=NCCN4)ccc3[nH]2)ccc1OCc1cn(CCN2CCOCC2)nn1.Cl.Cl
- Papp A→B at 1 h [1]: 0.48 ×10⁻⁶ cm/s
- Papp B→A at 1 h [2]: 0.89 ×10⁻⁶ cm/s
- inhibition at 100 µg/mL [3]: 100%
- efflux ratio [4]: 1.86

SMILES: Cl.Cl.c1cc(-c2nc3cc(C4=NCCN4)ccc3[nH]2)ccc1OCc1cn(CCN2CCOCC2)nn1
- Papp A→B at 1 h [1]: 1.09 ×10⁻⁶ cm/s
- IC50 [5]: > 4 µM
- Papp B→A at 1 h [2]: 1.18 ×10⁻⁶ cm/s
- inhibition at 100 µg/mL [3]: 100%
- efflux ratio [4]: 1.09
- inhibition at 1 µg/mL [6]: > 90%

SMILES: COc1cc(-c2nc3cc(C4=NCCN4)ccc3[nH]2)ccc1OCc1cn(Cc2ccccc2)nn1.Cl
- Papp A→B at 1 h [1]: < 0.1 ×10⁻⁶ cm/s
- Papp B→A at 1 h [2]: < 0.1 ×10⁻⁶ cm/s
- inhibition at 100 µg/mL [3]: 100%

SMILES: COc1cc(-c2nc3cc(C4=NCCN4)ccc3[nH]2)ccc1OCCN1CCOCC1.Cl.Cl
- Papp A→B at 1 h [1]: 0.64 ×10⁻⁶ cm/s
- Papp B→A at 1 h [2]: 0.67 ×10⁻⁶ cm/s
- inhibition at 100 µg/mL [3]: 100%
- efflux ratio [4]: 1.04

SMILES: Cl.Cl.Fc1cc(-c2nc3cc(C4=NCCN4)ccc3[nH]2)ccc1OCCN1CCOCC1
- Papp A→B at 1 h [1]: 0.49 ×10⁻⁶ cm/s
- Papp B→A at 1 h [2]: 0.84 ×10⁻⁶ cm/s
- inhibition at 100 µg/mL [3]: 100%
- efflux ratio [4]: 1.7

SMILES: CCN(CC)CCOc1ccc(-c2nc3cc(C4=NCCN4)ccc3[nH]2)cc1.Cl.Cl
- Papp A→B at 1 h [1]: 0.27 ×10⁻⁶ cm/s
- selectivity ratio [7]: > 530
- IC50 [5]: 0.47 µM
- IC90 ([5]; Trypanosoma brucei, 221, time 48 hrs): 1.82 µM
- ΔTm (Calf thymus DNA [8]): 6.4 °C
- Activity (RNA): Active
- log Ks [9]: 5.1
- Papp B→A at 1 h [2]: 0.63 ×10⁻⁶ cm/s
- inhibition at 100 µg/mL [3]: 100%
- IC50 (L6): > 250 µM
- log Ks (Calf thymus DNA [10]): 5.9
- efflux ratio [4]: 2.38
- Ratio IC50 [11]: >2
- inhibition at 1 µg/mL [6]: > 90%
- ΔTm [12]: 4.5 °C
- ΔTm [13]: 17.9 °C
- log Ks [14]: 5.3
- Activity (dsDNA): Active
- log Ks [15]: 5.2

SMILES: Cl.O=C(COc1ccc(-c2nc3cc(C4=NCCN4)ccc3[nH]2)cc1)c1ccccc1
- Papp A→B at 1 h [1]: < 0.1 ×10⁻⁶ cm/s
- Papp B→A at 1 h [2]: 0.11 ×10⁻⁶ cm/s
- inhibition at 100 µg/mL [3]: 100%

SMILES: Cl.c1ccc(COc2ccc(-c3nc4cc(C5=NCCN5)ccc4[nH]3)cc2)nc1
- Papp A→B at 1 h [1]: 0.07 ×10⁻⁶ cm/s
- Papp B→A at 1 h [2]: 0.51 ×10⁻⁶ cm/s
- inhibition at 100 µg/mL [3]: 100%
- efflux ratio [4]: 7.82

SMILES: COc1cc(-c2nc3cc(C4=NCCN4)ccc3[nH]2)ccc1OCC(=O)c1ccccc1.Cl
- Papp A→B at 1 h [1]: < 0.1 ×10⁻⁶ cm/s
- inhibition at 100 µg/mL [3]: 100%

SMILES: CCN(CC)CCOc1ccc(-c2nc3cc(C4=NCCN4)ccc3[nH]2)cc1F.Cl.Cl
- Papp A→B at 1 h [1]: 0.17 ×10⁻⁶ cm/s
- selectivity ratio [7]: > 68
- IC50 [5]: 3.67 µM
- ΔTm (Calf thymus DNA [8]): 4.5 °C
- log Ks [9]: 4.9
- Papp B→A at 1 h [2]: 0.49 ×10⁻⁶ cm/s
- inhibition at 100 µg/mL [3]: 100%
- IC50 (L6): > 250 µM
- log Ks (Calf thymus DNA [10]): 6
- efflux ratio [4]: 2.92
- inhibition at 1 µg/mL [6]: > 90%
- ΔTm [12]: 2.4 °C
- ΔTm [13]: 14.7 °C
- log Ks [14]: 4.5
- log Ks [15]: 6.4
